Literature values as cited in patent publication US11564958B2, “Compositions and methods of treatment of Ehlers-Danlos syndromes” (RESOLYS BIO, INC., priority 2017, dated 2023).

Tested on: rheumatoid arthritis
Conditions: reported in U.S. Pat. No. 4,704,273

In the case of `NCCc1c[nH]cn1` [histamine, 4-(2-aminoethyl)-imidazole], the “usefulness in alleviating symptoms of rheumatoid arthritis” value is given as “not be useful”.
